Measured values published in ChEMBL document CHEMBL5352470, “RS6077 induces mitotic arrest and selectively activates cell death in human cancer cell lines and in a lymphoma tumor in vivo” (Eur J Med Chem, 2023).
pIC50: −log10 of the molar value. Active and inactive are the calls of the source. No cut-off for these calls is given here.

How the values were obtained:
[1] = Metabolic stability in mouse liver microsome assessed as intrinsic clearance measured upto 60 mins by LC-MS/MS analysis; type: ADME; conditions: liver microsomes, read-out: CLH
[2] = Toxicity in human T cells derived from human PBMC assessed as late apoptotic cells at 1 uM measured for 72 hrs by annexin V-FITC and PI staining based flow cytometry analysis (reference value: 11.5 to 17.6%); conditions: t-cell
TERT-RPE1 [3] = assay: Induction of cell cycle arrest in human RPE-1 cells assessed as accumulation of cells at G2 phase incubated for 72 hrs by annexin V-FITC and PI staining based flow cytometry analysis; type: functional
TERT-RPE1 [4] = assay: Induction of cell cycle arrest in human TERT-RPE1 cells assessed as accumulation of cells at G1 phase at 1000 nM incubated for 72 hrs by annexin V-FITC and PI staining based flow cytometry analysis; type: functional
[5] = Toxicity in human T cells derived from human PBMC assessed as viable cells at 1 uM measured for 72 hrs by annexin V-FITC and PI staining based flow cytometry analysis (reference value: 66.5 to 77.5 %); type: cell-based, T-cell; conditions: read-out: Activity
AHH-1 [6] = assay: Induction of cell cycle arrest in human AHH-1 cells assessed as accumulation of cells at S phase at 2500 nM incubated for 72 hrs by annexin V-FITC and PI staining based flow cytometry analysis; type: functional
[7] = Metabolic stability in human liver microsome assessed as intrinsic clearance measured upto 60 mins by LC-MS/MS analysis; type: ADME; conditions: liver microsomes, read-out: CLH
TERT-RPE1 [8] = assay: Induction of cell cycle arrest in human TERT-RPE1 cells assessed as accumulation of cells at S phase at 1000 nM incubated for 72 hrs by annexin V-FITC and PI staining based flow cytometry analysis; type: functional
[9] = Toxicity in human T cells derived from human PBMC assessed as early apoptotic cells at 2.5 uM measured for 72 hrs by annexin V-FITC and PI staining based flow cytometry analysis (reference value: 9.70 to […]); conditions: t-cell
AHH-1 [10] = assay: Induction of cell cycle arrest in human AHH-1 cells assessed as accumulation of cells at G2/M phase at 100 nM incubated for 72 hrs by annexin V-FITC and PI staining based flow cytometry analysis; type: functional
TMD8 [11] = assay: Antitumor activity against human TMD8 cells xenografted in NOD/SCID mouse assessed as reduction in tumor volume at 100 mg/kg, po administered for 5 days and measured on day 9; type: functional; conditions: time 9 day
HeLa [12] = assay: Induction of cell cycle arrest in human HeLa cells assessed as accumulation of cells at G1 phase at 1000 nM incubated for 72 hrs by annexin V-FITC and PI staining based flow cytometry analysis; type: functional
HeLa [13] = assay: Induction of cell cycle arrest in human HeLa cells assessed as accumulation of cells at S phase at 100 nM incubated for 72 hrs by annexin V-FITC and PI staining based flow cytometry analysis; type: functional
Maver1 = assay: Antiproliferative activity against human MAVER-1 cells assessed as inhibition of cell growth measured for 72 hrs by MTT assay; type: functional, cell-based; conditions: Maver1, 72 h
[14] = Toxicity in human T cells derived from human PBMC assessed as necrotic cells at 1 uM measured for 48 hrs by annexin V-FITC and PI staining based flow cytometry analysis (reference value: 0.31 to 0.48 %); conditions: t-cell
AHH-1 [15] = assay: Induction of cell cycle arrest in human AHH-1 cells assessed as accumulation of cells at G1 phase at 1000 nM incubated for 72 hrs by annexin V-FITC and PI staining based flow cytometry analysis; type: functional
U2932 = assay: Antiproliferative activity against human U2932 cells assessed as inhibition of cell growth measured for 72 hrs by MTT assay; type: functional, cell-based; conditions: U2932, 72 h
[16] = Toxicity in human T cells derived from human PBMC assessed as necrotic cells at 0.1 uM measured for 48 hrs by annexin V-FITC and PI staining based flow cytometry analysis (reference value: 0.31 to 0.48 %); conditions: t-cell
TMD8 [17] = assay: Antiproliferative activity against human TMD8 cells assessed as inhibition of cell growth measured for 72 hrs by MTT assay; type: functional, cell-based; conditions: TMD8, 72 h
[18] = Toxicity in human T cells derived from human PBMC assessed as viable cells at 0.1 uM measured for 72 hrs by annexin V-FITC and PI staining based flow cytometry analysis (reference value: 66.5 to 77.5 %); type: cell-based, T-cell; conditions: read-out: Activity
TMD8 [19] = assay: Antitumor activity against human TMD8 cells xenografted in NOD/SCID mouse assessed as reduction in tumor size at 100 mg/kg, po administered for 5 days; type: functional, organism-based; conditions: time 5.0 day
[20] = Toxicity in human T cells derived from human PBMC assessed as late apoptotic cells at 2.5 uM measured for 72 hrs by annexin V-FITC and PI staining based flow cytometry analysis (reference value: 11.5 to 17.6%); conditions: t-cell
[21] = Toxicity in human T cells derived from human PBMC assessed as late apoptotic cells at 0.1 uM measured for 48 hrs by annexin V-FITC and PI staining based flow cytometry analysis (reference value: 13.5 to […] %); conditions: t-cell
[22] = Toxicity in human T cells derived from human PBMC assessed as early apoptotic cells at 1 uM measured for 72 hrs by annexin V-FITC and PI staining based flow cytometry analysis (reference value: 9.70 to […]); conditions: t-cell
[23] = Toxicity in human T cells derived from human PBMC assessed as necrotic cells at 1 uM measured for 72 hrs by annexin V-FITC and PI staining based flow cytometry analysis (reference value: 0.48 to 0.56 %); conditions: t-cell
TERT-RPE1 [24] = assay: Induction of cell cycle arrest in human TERT-RPE1 cells assessed as accumulation of cells at G1 phase at 100 nM incubated for 72 hrs by annexin V-FITC and PI staining based flow cytometry analysis; type: functional
MCF7 = assay: Antiproliferative activity against human MCF7 cells assessed as inhibition of cell growth measured for 48 hrs by MTT assay; type: functional, cell-based; conditions: MCF7, 48 h
[25] = Toxicity in human T cells derived from human PBMC assessed as necrotic cells at 2.5 uM measured for 72 hrs by annexin V-FITC and PI staining based flow cytometry analysis (reference value: 0.48 to 0.56 %); conditions: t-cell
HeLa [26] = assay: Induction of cell cycle arrest in human HeLa cells assessed as accumulation of cells at G2/M phase at 2500 nM incubated for 72 hrs by annexin V-FITC and PI staining based flow cytometry analysis; type: functional
TMD8 [27] = assay: Antitumor activity against human TMD8 cells xenografted in NOD/SCID mouse assessed as reduction in tumor volume at 100 mg/kg, po administered for 5 days and measured on day 1; type: functional; conditions: time 1 day
Tubulin (Homo sapiens) = Tubulin (Homo sapiens) (UniProt P68371+Q9H4B7+P0DPH7+P68366+Q13509+Q71U36+P04350+Q3ZCM7+P07437+P68363+Q9BQE3+Q6PEY2+Q13885+Q9BVA1+Q9BUF5); assay: Inhibition of [3H]colchicine binding to tubulin (unknown origin) at 1 to 5 uM relative to control; type: protein-complex assay; conditions: dose 1-5 µM
[28] = Toxicity in human T cells derived from human PBMC assessed as early apoptotic cells at 0.1 uM measured for 72 hrs by annexin V-FITC and PI staining based flow cytometry analysis (reference value: 9.70 to […]); conditions: t-cell

## COc1cc(C(=O)c2ccn(-c3ncnc4[nH]ccc34)c2)cc(OC)c1OC
[1]
  microsomal CLint: 96 µL/min/mg
[2]
  Activity: 12%
TERT-RPE1 [3]
  Activity: inactive
TERT-RPE1 [4]
  Activity: 13.3%
[5]
  viability at 72 h, 1 µM: 64.7%
AHH-1 [6]
  Activity: 19.4%
[7]
  microsomal CLint: 28 µL/min/mg
TERT-RPE1 [8]
  Activity: 3.4%
[9]
  Activity: 10.3%
AHH-1 [10]
  Activity: 32%
TMD8 [11]
  Activity: 402 mm3
HeLa [12]
  Activity: 22.2%
HeLa [13]
  Activity: 43.2%
Maver1
  pIC50: 7.20
[14]
  Activity: 0.24%
AHH-1 [15]
  Activity: 9.5%
U2932
  pIC50: 7.68
[16]
  Activity: 0.28%
TMD8 [17]
  pIC50: 7.67
[18]
  viability at 72 h, 0.1 µM: 68.1%
TMD8 [19]
  Activity: Active
[20]
  Activity: 12.7%
[21]
  Activity: 13.3%
[22]
  Activity: 11.6%
[23]
  Activity: 0.41%
TERT-RPE1 [24]
  Activity: 13.9%
MCF7
  pIC50: 7.42
[25]
  Activity: 0.14%
HeLa [26]
  Activity: 34.4%
TMD8 [27]
  Activity: 252 mm3
Tubulin (Homo sapiens)
  inhibition: 85%
[28]
  Activity: 9.7%
